Calls of active or inactive are those of the source. The calls are words filed in the database; no cut-off is given here.
Legend:
[1] = Cytotoxicity against rat PC12 cells assessed as reduction in cell viability at 20 uM to 100 uM incubated for 24 hrs by MTT assay; format: cell-based; conditions: pc-12, 24 h
[2] = Cytotoxicity against human L02 cells assessed as reduction in cell viability at 20 uM to 100 uM incubated for 24 hrs by MTT assay; format: cell-based; conditions: l02, 24 h
[3] = Cytotoxicity against rat PC12 cells assessed as reduction in cell viability at 20 uM incubated for 24 hrs by MTT assay; format: cell-based; conditions: pc-12, 24 h
PC-12 [4] = assay: Cytoprotection activity against H2O2-induced cytotoxicity in rat PC12 cells assessed as cell viability at 20 uM pre-incubated for 24 hrs before H2O2 exposure for 12 hrs by MTT assay; format: functional, cell-based
PC-12 [5] = assay: Cytoprotection activity against 6-OHDA-induced cytotoxicity in rat PC12 cells assessed as cell viability at 20 uM pre-incubated for 24 hrs before 6-OHDA exposure for 12 hrs by MTT assay; format: functional, cell-based
[6] = Cytotoxicity against rat PC12 cells assessed as reduction in cell viability at 100 uM incubated for 24 hrs by MTT assay; format: cell-based; conditions: pc-12, 24 h
[7] = Cytotoxicity against human L02 cells assessed as reduction in cell viability at 100 uM incubated for 24 hrs by MTT assay; format: cell-based; conditions: l02, 24 h
[8] = Antioxidant activity assessed as DPPH radical scavenging activity at 20 uM incubated for 30 mins by spectrophotometry; format: physicochemical; conditions: 0.5 h
[9] = Antioxidant activity assessed as ABTS radical scavenging activity at 20 uM incubated for 30 mins by spectrophotometry; format: physicochemical; conditions: 0.5 h

Compound | Activity [1] | Activity [2] | Activity [3] | Activity (PC-12 [4]) | Activity (PC-12 [5]) | Activity [6] | Activity [7] | Activity [8] | Activity [9]
COc1ccc(/C=C/C(=O)N2CCCCC2=O)cc1 | Non-toxic | Non-toxic | Non-toxic | Active | Active | – | – | – | –
COc1cc(CCC(=O)N2CCCCC2=O)cc(OC)c1OC [TETRAHYDROPIPLARTINE] | Non-toxic | Non-toxic | Non-toxic | inactive | inactive | – | – | – | –
O=C(/C=C/c1ccc(C(F)(F)F)cc1)N1CCCC1=O | – | – | Non-toxic | Active | Active | Toxic | Toxic | – | –
O=C(/C=C/c1ccc([N+](=O)[O-])cc1)N1CCCCC1=O | – | – | Non-toxic | Active | Active | Toxic | Toxic | – | –
O=C(/C=C/c1ccccc1)N1CCCCCC1=O | – | – | Non-toxic | Active | Active | Toxic | Toxic | – | –
COc1cc(/C=C/C(=O)N2CCCCCC2=O)cc(OC)c1OC | Non-toxic | Non-toxic | Non-toxic | Active | Active | – | – | – | –
O=C(/C=C/c1ccc(O)cc1)N1CCCC1=O | Non-toxic | Non-toxic | Non-toxic | Active | Active | – | – | Active | Active
COc1cc(/C=C/C(=O)N2CCCC2=O)cc(OC)c1OC | Non-toxic | Non-toxic | Non-toxic | Active | Active | – | – | – | –
COc1cc(/C=C/C(=O)N2CCC=CC2=O)cc(OC)c1OC [PIPLARTINE] | Toxic | Toxic | Toxic | – | – | – | – | – | –
O=C(/C=C/c1ccccc1)N1CCCC1=O | – | – | Non-toxic | Active | Active | Toxic | Toxic | – | –
O=C(/C=C/c1ccccc1)N1CCCCC1=O | – | – | Non-toxic | Active | Active | Toxic | Toxic | – | –
COc1ccc(/C=C/C(=O)N2CCCC2=O)cc1OC | Non-toxic | Non-toxic | Non-toxic | Active | Active | – | – | – | –
O=C(/C=C/c1ccc([N+](=O)[O-])cc1)N1CCCCCC1=O | – | – | Non-toxic | Active | Active | Toxic | Toxic | – | –
O=C(/C=C/c1ccc(Br)cc1)N1CCCC1=O | – | – | Non-toxic | Active | Active | Toxic | Toxic | – | –
O=C(/C=C/c1ccc(C(F)(F)F)cc1)N1CCCCC1=O | – | – | Non-toxic | Active | Active | Toxic | Toxic | – | –
O=C(/C=C/c1ccc(C(F)(F)F)cc1)N1CCCCCC1=O | – | – | Non-toxic | Active | Active | Toxic | Toxic | – | –
O=C(/C=C/c1ccc(Br)cc1)N1CCCCC1=O | – | – | Non-toxic | Active | Active | Toxic | Toxic | – | –

From ChEMBL document CHEMBL3580644, “Synthesis of piperlongumine analogues and discovery of nuclear factor erythroid 2-related factor 2 (Nrf2) activators as potential neuroprotective agents” (J Med Chem, 2015)
